Data from US20220079912A1, “ANTICANCER FORMULATION” (University of Mississippi, priority 2018, published 2022).

Key:
[1] = test system: T98G human glioblastoma cells; experiment: Lactic acid accumulation in cell culture medium; type: cell-based; details: three hour period; for inhibition of lactic acid production (accumulation): different concentrations, FIG. 6, FIG. 7
Description: Acidification of the cell culture medium occurs because of the enhanced use of glycolysis by transformed cells (and resulting increase in lactic acid production). This led us to investigate whether GH reduced lactic acid levels in the cell culture medium.

[2] = test system: T98G cells; experiment: Combination cytotoxicity with mitochondrial complex I inhibitors (% cell survival)
Excerpt: Example 2: Gnetin H In Combination with Mitochondrial Complex I Inhibitors. […] The plus signs above the combination treatment bars indicates the value of % cell survival if the anti-proliferative effect was additive.
In FIGS. 9 A-B., the plus signs are placed above the combination treatment bars at the % cell survival value if the anti-proliferative effect was additive. […] Both T98G and MDA-MB-231 cells lack functional p53 but B16 are p53 wild type.
Example 4: Peony Seed extract. […] T98G cells were treated with different concentrations of purified GH (numbers indicate μM) or PSE (numbers indicate μg/ml) alone or in combination with a Paw Paw (PP) extract (2 μg/ml) for 48 hrs (FIG. 12 A). The plus signs are placed above the combination treatment bars at the % cell survival value if the anti-proliferative effect was additive. […] T98G cells were treated with different concentrations of purified GH or PSE in combination with a Paw Paw extract (2 μg/ml) for 48 hrs (FIG. 12 B).

[3] = test system: ARRDC4 mRNA; experiment: Differential gene expression analysis (RNA-Seq) in T98G cells; type: cell-based, human; details: 2 hours, GH 8 μM, 2-DG 25 mM, Ph 100, minus = reduced, plus = increase, NC = no change
Excerpt: (§1) GH inhibits expression of TXNIP and ARRDC4 mRNAs. […] Since the transcription factors (MondoA/Mlx complex) regulating the expression of the TXNIP gene is thought to be controlled by intermediates in the upper portion of the glycolytic pathway (12), GH may be negatively impacting this portion of glycolysis. Reduction in the levels of these intermediates by GH would prevent activation of the MondoA/Mlx transcription complex and would result in suppression of TXNIP transcription and TXNIP mRNA levels. Both of these gene products (TXNIP and ARRDC4) are thought to suppress glucose transport by enhancing degradation of glucose transporters (12).

[4] = test system: TXNIP protein levels; experiment: Western blot of TXNIP protein, MDA-MB-231 cell line; type: cell-based, human; details: FIG. 16, FIG. 18; for TXNIP protein levels, agent alone: GH 8 μM 6 hrs or 3 hrs, 2-DG 25 mM, OXA 25 mM, BPX 25 μM, DCA 25 mM, 6 hr
Excerpt: (§2) AMPK activation has been previously shown to phosphorylate and cause the degradation of TXNIP during energy stress (13).

[5] = test system: TXNIP protein levels; experiment: Western blot of TXNIP protein, T98G cell line; type: cell-based, human; details: FIG. 15, FIG. 17; for TXNIP protein levels, agent alone: GH 8 μM 6 hrs or 3 hrs, 2-DG 25 mM, OXA 25 mM, BPX 25 μM, DCA 25 mM, 6 hr
Excerpt: as §2

[6] = test system: B16 cells; experiment: Glucose transport (2-NBDG accumulation); type: cell-based, mouse; details: B16, treated for one hour followed by 2-NBDG for one hour
[7] = test system: MDA-MB-231 cells; experiment: Glucose transport (2-NBDG accumulation); type: cell-based, human; details: MDA-MB-231, treated for one hour followed by 2-NBDG for one hour
Excerpt: Phloretin, a known glucose transport inhibitor, was used as a positive control. Accumulation of 2-NDGB was inhibited by phloretin by 54% in T98G cells, by 31% in B16 cells and by 74% in MDA-MB-231 cells. The first panel for each cell line represents unstained cells, the second stained with 2-NBDG for one hour, the third treated with GH for one hour followed by 2-NBDG for one hour and the fourth treated with phloretin for one hour followed by 2-NBDG for one hour.

[8] = test system: T98G cells; experiment: Glucose transport (2-NBDG accumulation); type: cell-based, human; details: treated for one hour followed by 2-NBDG for one hour
[9] = test system: TXNIP mRNA; experiment: Differential gene expression analysis (RNA-Seq) in T98G cells; type: cell-based, human; details: 2 hours, GH 8 μM, 2-DG 25 mM, Ph 100, minus = reduced, plus = increase, NC = no change
Excerpt: as §1

[10] = test system: B16 cells; experiment: Lactic acid export (intracellular lactic acid levels); type: cell-based, mouse; details: 3 hours, FIG. 4
Description: To prevent the buildup of lactic acid within the cell a family of monocarboxylate transporters (MCT) functions to transport lactic acid out of the cell (10). To determine if GH inhibits lactic acid export from the cell, and in this manner inhibits the accumulation of lactic acid in the cell culture medium, intracellular lactic acid levels were measured. If GH inhibited lactic acid export, treatment of cells with GH would result in the increase in intracellular lactic acid levels. As a positive control the MCT1 inhibitor AZD3965 was used.

Oc1ccc(C=Cc2cc(O)cc(O)c2)cc1 [Res, Resveratrol]
inhibition of lactic acid production (accumulation) [1]: did not inhibit lactic acid production

O=CC[C@@H](O)[C@H](O)[C@H](O)CO [2-DG, 2-deoxyglucose]
synergistic cytotoxicity in combination with phenformin (Ph) at 100 μM [2]: not synergistically cytotoxic | ARRDC4 mRNA fold change [3]: +3 fold | TXNIP protein levels, in combination with Ph [4]: reduction of TXNIP protein levels | TXNIP protein levels, agent alone [4]: increased TXNIP protein levels | TXNIP protein levels, in combination with Ph [5]: reduction of TXNIP protein levels | TXNIP protein levels, agent alone [5]: increased TXNIP protein levels

Oc1ccc(/C=C/c2cc(O)cc3c2[C@@H](c2cc(O)cc(O)c2)[C@H](c2ccc(O)cc2)O3)cc1 (relative stereo) [Vin, trans-ε viniferin, reference compound]
synergistic cytotoxicity in combination with phenformin (Ph) at 100 μM [2]: did not mimic GH activity | inhibition of lactic acid production ([1]; 40 μM, FIG. 6): 40%

O=C(CCc1ccc(O)cc1)c1c(O)cc(O)cc1O [phloretin, Phloretin, reference compound]
inhibition of accumulation of 2-NBDG [6]: 31% | inhibition of accumulation of 2-NBDG [7]: 74% | inhibition of accumulation of 2-NBDG [8]: 54%

[H]/N=C(/N)N/C(=N/[H])NCCc1ccccc1 [Ph, phenformin, reference compound]
TXNIP mRNA fold change [9]: −2.5 fold

O=C(O)C(=O)CBr [BPX, 3-bromopyruvate]
TXNIP protein levels, in combination with Ph [4]: reduced TXNIP protein levels | TXNIP protein levels, agent alone [4]: do not substantially reduce TXNIP protein levels | TXNIP protein levels, in combination with Ph [5]: reduced TXNIP protein levels | TXNIP protein levels, agent alone [5]: do not substantially reduce TXNIP protein levels

Cc1[nH]nc(C(F)(F)F)c1Cc1sc2c(c1C(=O)N1C[C@](C)(O)CO1)c(=O)n(C)c(=O)n2C(C)C [AZD3965, reference compound]
accumulation of intracellular lactic acid above control values [10]: ~4 fold

CC(=O)N[C@@H](CS)C(=O)O [NAC, n-acetylcysteine]
inhibition of lactic acid production (accumulation) [1]: did not inhibit lactic acid production
